Source: patent publication EP0450461B1, “LHRH Analogs” (The Administrators of The Tulane Educational Fund, priority 1990, dated 1991)
Marks after values point to notes of the source that are not given here.

How the values were obtained:
[1] = system: membrane receptors of human breast cancer cells; experiment: Receptor binding affinity for human breast cancer cell membranes, labelled [D-Trp6]LHRH as ligand
Protocol: Affinity for peptides to human breast cancer cell membranes is determined by using labelled LHRH and [D-Trp⁶]LHRH. The assay is carried out similarly to that described by T. Kadar et al., Proc. Natl. Acad. Sci. USA, 85, 890-894 (1988) and M. Fekete et al., Endocrinology, 124, 946-955 (1989).
(§1) Table 2 presents the antiovulatory activity and human breast cancer cell membrane receptor binding affinity of the claimed compounds having LHRH-inhibiting properties. The inhibitory action was determined in vivo, in 4-day cycling rats as described [A. Corbin and C. W. Beattie, Endocr. Res. Commun., 2, 1-23 (1975)].

4-day-cycling rats = experiment: In vivo antiovulatory activity; settings: 10 µg per rat
Protocol: This activity of the peptides is determined in 4-day-cycling rats as described [A. Corbin and C. W. Beattie, Endocr. Res. Commun., 2, 1-23 (1975)].
as §1

[2] = system: MCF-7 human breast cancer cell line; experiment: Cytotoxicity test: inhibition of 3H-thymidine incorporation into DNA; assay type: cell-based
Protocol: Ability of peptides of Formula I to inhibit incorporation of [³H]thymidine into DNA of monolayer cultures the human mammary tumor cell line MCF-7 is assayed as described [V. K. Sondak et al., Cancer Research, 44, 1725-1728 (1984); F. Holzel et al., J. Cancer Res. Clin. Oncol. 109, 217-226 (1985); M. Albert et al., J. Cancer Res. Clin. Oncol. 109, 210-216 (1985)].
200,000 cells in 200 µl of […] + 2% CFBS were incubated with 1,5 or 10 µg cytotoxic analogs for 3 hours or 23 hours then 1 µCi ³H-thymidine added and incubated an additional 60 min. DNA extracted with 1 N perchloric acid and the radioactivity measured.

rat pituitary cell = settings: LH-releasing activity compared to that produced by 3 nM LH-RH; peptide infused for 3 minutes
Protocol: Ability of compounds to influence LH release in vitro is assayed by using a superfused rat pituitary cell system [S. Vigh and A. V. Schally, Peptides, 5 Suppl.
LH-releasing effect of compounds is determined as follows: each peptide is perfused through the cells for 3 min (1 ml perfusate) at 20-100 pM. LH content of 1 ml fractions collected is determined by radioimmunoassay (RIA). Potency of peptides is compared to that of 3 nM LHRH perfused similarly.
The peptide was infused for 3 minutes at various concentration, and the amount of LH released was compared to that released by 3 nM LHRH.

[3] = system: human mammary cell line MDA-MB-231; settings: 10µg dose; cited from earlier work
[4] = Table 1, ¹²⁵I-[D-Trp]⁶LHRH used as labelled ligand
[5] = Table 2, ¹²⁵I-[D-Trp]⁶ LHRH used as the labelled ligand

Row | Compound | Affinity Constant Ka1 [1, 4] | %Ovulation Blockade (4-day-cycling rats) | Affinity Constant Ka1 [1, 5] | % Inhibition at 24 hrs ([2]; Dose 1 µg/ml) | % Inhibition at 24 hrs ([2]; Dose 10 µg/ml) | further results
1 | pGlu-His-Trp-Ser-Tyr-D-Lys(MTX)-Leu-Arg-Pro-Gly-NH₂ [2B] | 0.63 nM⁻¹ | – | – | – | – | –
2 | pGlu-His-Trp-Ser-Tyr-D-Lys(MTX)-Leu-Arg-Pro-Gly-NH₂ [2A] | 5.42 nM⁻¹ | – | – | – | – | Affinity Constant Ka2 [1, 4]: 1.59 µM⁻¹
3 | Ac-Nal(2)-D-Phe(4Cl)-D-Pal(3)-Ser-Arg-D-Lys[A₂pr(HMAQG)₂]-Leu-Arg-Pro-D-Ala-NH₂ [compound 4] | – | 40% | 2.28 nM⁻¹ | 15% | 40** % | % Inhibition at 4 hrs ([2]; Dose 1 µg/ml): 31** %; % Inhibition at 4 hrs ([2]; Dose 10 µg/ml): 28** %
4 | CC(C)C[C@H](NC(=O)[C@@H](CCCCNC(=O)CCCC(=O)OCc1ccc2c(c1)C(=O)c1ccccc1C2=O)NC(=O)[C@H](Cc1ccc(O)cc1)NC(=O)[C@H](CO)NC(=O)[C@H](Cc1c[nH]c2ccccc12)NC(=O)[C@H](Cc1c[nH]cn1)NC(=O)[C@@H]1CCC(=O)N1)C(=O)N[C@@H](CCCNC(=N)N)C(=O)N1CCC[C@H]1C(=O)NCC(N)=O [compound 1, pGlu-His-Trp-Ser-Tyr-D-Lys(HMAQG)-Leu-Arg-Pro-Gly-NH₂] | – | – | – | – | – | Relative Activity (rat pituitary cell): 35
5 | pGlu-His-Trp-Ser-Tyr-D-Lys[Ahx-A₂bu(SAL)₂(Cu)]-Leu-Arg-Pro-Gly-NH₂ | – | – | – | – | – | inhibits the [³H]thymidine incorporation into DNA [3]: 87%
6 | Ac-Nal(2)-D-Phe(4Cl)-D-Trp-Ser-Arg-D-Lys[A₂pr(HMAQG)₂]-Leu-Arg-Pro-D-Ala-NH₂ [compound 3] | – | 0% | 7.05 nM⁻¹ | 3% | 11% | Affinity Constant Ka2 [1, 5]: 8.6 µM⁻¹
